Experimental data from patent publication US11813305B2, “Endoplasmic reticulum stress as a predictive tool in cancer therapy and a combination therapy for the treatment of cancer” (IMMUNE SYSTEM KEY LTD., priority 2016, dated 2023).
Square brackets hold non-standard residues; d marks the D form. Peptide text beside a SMILES is read from it.

What was measured:
[1] = human, in vivo
Experimental: (§1) The dose escalation study followed a traditional “3+3” scheme and included doses of 6, 12, 24, 48, and 96 mg/m^2 intravenous (i.v.) dTCApFs, 3 times/week in consecutive 28-day cycles. In all 3-patient cohorts, there were 2-4 weeks between the first dose for the first and second patients, and ≥1 week for the third patient. New dose levels started after follow up of ≥28 days for 3 patients at the previous level. MTD was defined as the highest dose level at which ≥1 of 3 subjects experience a DLT during their first cycle of treatment. […] In addition, PK parameters, including area under the curve (AUC), maximal plasma concentration (Cmax), and plasma half-life (t1/2) were determined. PK parameters were estimated using non-compartmental models.
(§2) dTCApFs powder for solution for injection is supplied as a lyophilized 5 mL vial containing either 15 mg (7.5 mg/mL) or 10 mL vial containing 80 mg (40 mg/mL) of the active substance with 4.8% mannitol, for reconstitution to a final volume of 2 mL with water for injection per vial as described above. The reconstituted 2 mL vial of dTCApFs powder for solution for injection must thereafter be diluted to a final volume 100 mL in aqueous Dextrose 5% for infusion for dose levels up to and including 48 mg/m2. For dose levels above 48 mg/m2, the final dilution volume was 250 mL. dTCApFs for injection was administered intravenously (iv) during 60 minutes.
(§3) PK parameters, including AUC (0-24), Cmax, Cmin, Tmax and t1/2 are estimated using non-compartmental models. Comparisons across dose levels are made to assess proportionality.

[2] = Pharmacokinetics of dTCApFs, phase I dose escalation study, i.v. 3 times/week; settings: human, plasma
Experimental: as §1, §2, §3

[3] = system: healthy human peripheral immune cells; format: cell-based; settings: data not shown
Source text: Therefore, without wishing to be bound by theory, dTCApFs appears to selectively affect cancer cells.

CC(C)C[C@@H](NC(=O)[C@H](NC(=O)[C@@H](CO)NC(=O)[C@H]1CCCN1C(=O)[C@@H](CC(C)C)NC(=O)[C@@H](Cc1ccccc1)NC(=O)[C@@H](Cc1ccccc1)NC(=O)[C@H](NC(=O)[C@@H](Cc1c[nH]c2ccccc12)NC(=O)[C@H](N)Cc1c[nH]c2ccccc12)[C@H](C)O)[C@H](C)O)C(=O)N[C@H](Cc1c[nH]c2ccccc12)C(=O)N[C@H](CCC(=O)O)C(=O)N[C@H](CCCNC(=N)N)C(=O)N[C@H](CCCCN)C(=O)O [dTCApFs, Trp Trp Thr Phe Phe Leu Pro Ser Thr Leu Trp Glu Arg Lys] (H-[dW][dW][dT][dF][dF][dL][dP][dS][dT][dL][dW][dE][dR][dK]-OH; N-terminus and C-terminus assumed)
relation of t1/2, Cmax and AUC0 to dose [1]: linearly related to dose
Cmax ([2]; intravenous, 12 mg/m^2, Cmax, Cycle 2, Day 1, 12 mg/m^2, n = 4): 6050 ng/mL
Cmax ([2]; intravenous, 24 mg/m^2, Cmax, Cycle 2, Day 1, 24 mg/m^2, n = 4): 14600 ng/mL
AUC ([2]; intravenous, 96 mg/m^2, AUC0, Cycle 2, Day 1, 96 mg/m^2, n = 3): 295000 ng·h/mL
AUC ([2]; iv, 6 mg/m2, AUC0, Cycle 1, Day 1, 6 mg/m^2, n = 3): 3810 ng·h/mL
AUC ([2]; iv, 6 mg/m2, AUC0, Cycle 2, Day 1, 6 mg/m^2, n = 3): 9720 ng·h/mL
Cmax ([2]; iv, 6 mg/m2, Cmax, Cycle 1, Day 1, 6 mg/m^2, n = 3): 1210 ng/mL
Cmax ([2]; iv, 6 mg/m2, Cmax, Cycle 2, Day 1, 6 mg/m^2, n = 3): 1540 ng/mL
half-life ([2]; iv, 6 mg/m2, T1/2, Cycle 1, Day 1, 6 mg/m^2, n = 3): 138 min
half-life ([2]; iv, 6 mg/m2, T1/2, Cycle 2, Day 1, 6 mg/m^2, n = 3): 168 min
AUC ([2]; iv, 12 mg/m2, AUC0, Cycle 1, Day 1, 12 mg/m^2, n = 4): 12900 ng·h/mL
AUC ([2]; iv, 12 mg/m2, AUC0, Cycle 2, Day 1, 12 mg/m^2, n = 4): 11500 ng·h/mL
Cmax ([2]; iv, 12 mg/m2, Cmax, Cycle 1, Day 1, 12 mg/m^2, n = 4): 6050 ng/mL
half-life ([2]; iv, 12 mg/m2, T1/2, Cycle 1, Day 1, 12 mg/m^2, n = 4): 126 min
half-life ([2]; iv, 12 mg/m2, T1/2, Cycle 2, Day 1, 12 mg/m^2, n = 4): 120 min
AUC ([2]; iv, 24 mg/m2, AUC0, Cycle 1, Day 1, 24 mg/m^2, n = 4): 49600 ng·h/mL
AUC ([2]; iv, 24 mg/m2, AUC0, Cycle 2, Day 1, 24 mg/m^2, n = 4): 57100 ng·h/mL
Cmax ([2]; iv, 24 mg/m2, Cmax, Cycle 1, Day 1, 24 mg/m^2, n = 4): 14600 ng/mL
half-life ([2]; iv, 24 mg/m2, T1/2, Cycle 1, Day 1, 24 mg/m^2, n = 4): 192 min
half-life ([2]; iv, 24 mg/m2, T1/2, Cycle 2, Day 1, 24 mg/m^2, n = 4): 222 min
AUC ([2]; iv, 48 mg/m2, AUC0, Cycle 1, Day 1, 48 mg/m^2, n = 4): 79900 ng·h/mL
AUC ([2]; iv, 48 mg/m2, AUC0, Cycle 2, Day 1, 48 mg/m^2, n = 4): 100000 ng·h/mL
Cmax ([2]; iv, 48 mg/m2, Cmax, Cycle 1, Day 1, 48 mg/m^2, n = 4): 18300 ng/mL
Cmax ([2]; iv, 48 mg/m2, Cmax, Cycle 2, Day 1, 48 mg/m^2, n = 4): 22100 ng/mL
half-life ([2]; iv, 48 mg/m2, T1/2, Cycle 1, Day 1, 48 mg/m^2, n = 4): 294 min
half-life ([2]; iv, 48 mg/m2, T1/2, Cycle 2, Day 1, 48 mg/m^2, n = 4): 276 min
AUC ([2]; iv, 96 mg/m2, AUC0, Cycle 1, Day 1, 96 mg/m^2, n = 3): 207000 ng·h/mL
Cmax ([2]; iv, 96 mg/m2, Cmax, Cycle 1, Day 1, 96 mg/m^2, n = 3): 33000 ng/mL
Cmax ([2]; iv, 96 mg/m2, Cmax, Cycle 2, Day 1, 96 mg/m^2, n = 3): 32000 ng/mL
half-life ([2]; iv, 96 mg/m2, T1/2, Cycle 1, Day 1, 96 mg/m^2, n = 3): 360 min
half-life ([2]; iv, 96 mg/m2, T1/2, Cycle 2, Day 1, 96 mg/m^2, n = 3): 510 min
cell death [3]: only minor cell death occurred
